System: hippocampal neurons
Experiment: Light-driven synaptic transmission from ChR2-expressing presynaptic neurons
Assay type: cell-based, rat
Protocol: Spiking was measured while injecting current to keep the voltage of the cell at approximately −65 mV (holding current ranging from 0 pA to 200 pA). For the synaptic transmission experiments, we patched nonfluorescent neurons near ChR2-expressing neurons, immersed in Tyrode solution containing either 20 μM gabazine to isolate just the excitatory postsynaptic response, or in 5 μM NBQX to isolate just the inhibitory postsynaptic response. To confirm whether the evoked potentials were indeed synaptically driven, after synaptic stimulation we blocked all postsynaptic receptors with solution containing both 20 μM gabazine and 5 μM NBQX, and rephotostimulated.

Row | SMILES | effect on light-driven excitatory synaptic responses (glutamatergic blocker, FIG. 4(c)) | effect on light-driven inhibitory synaptic responses (GABAergic transmission blocker, FIG. 4(d))
1 | NS(=O)(=O)c1cccc2c1c([N+](=O)[O-])cc1nc(O)c(O)nc12 [NBQX] | abolishes these synaptic responses | 
2 | COc1ccc(-c2ccc(=N)n(CCCC(=O)O)n2)cc1 [gabazine] |  | abolishes these synaptic responses

Reference: patent US10422803B2, “Light-activated cation channel and uses thereof” (The Board of Trustees of the Leland Stanford Junior …, priority 2005, dated 2019)
